Literature values as cited in US20130039957A1, “CONTROLLED RELEASE PHARMACEUTICAL COMPOSITIONS OF BRIVARACETAM” (LUPIN LIMITED, priority 2010, published 2013).
Converted amounts (≈) assume the structure as drawn.

Key:
[1] = healthy subjects
[2] = molecular target: synaptic vesicle protein 2A (SV2A) (Homo sapiens, UniProt Q7L0J3); conditions: preclinical studies
[3] = system: neuronal voltage-dependent sodium channels; conditions: preclinical studies

Chain of synaptic vesicle protein 2A (SV2A) (Q7L0J3 whole entry, species assumed): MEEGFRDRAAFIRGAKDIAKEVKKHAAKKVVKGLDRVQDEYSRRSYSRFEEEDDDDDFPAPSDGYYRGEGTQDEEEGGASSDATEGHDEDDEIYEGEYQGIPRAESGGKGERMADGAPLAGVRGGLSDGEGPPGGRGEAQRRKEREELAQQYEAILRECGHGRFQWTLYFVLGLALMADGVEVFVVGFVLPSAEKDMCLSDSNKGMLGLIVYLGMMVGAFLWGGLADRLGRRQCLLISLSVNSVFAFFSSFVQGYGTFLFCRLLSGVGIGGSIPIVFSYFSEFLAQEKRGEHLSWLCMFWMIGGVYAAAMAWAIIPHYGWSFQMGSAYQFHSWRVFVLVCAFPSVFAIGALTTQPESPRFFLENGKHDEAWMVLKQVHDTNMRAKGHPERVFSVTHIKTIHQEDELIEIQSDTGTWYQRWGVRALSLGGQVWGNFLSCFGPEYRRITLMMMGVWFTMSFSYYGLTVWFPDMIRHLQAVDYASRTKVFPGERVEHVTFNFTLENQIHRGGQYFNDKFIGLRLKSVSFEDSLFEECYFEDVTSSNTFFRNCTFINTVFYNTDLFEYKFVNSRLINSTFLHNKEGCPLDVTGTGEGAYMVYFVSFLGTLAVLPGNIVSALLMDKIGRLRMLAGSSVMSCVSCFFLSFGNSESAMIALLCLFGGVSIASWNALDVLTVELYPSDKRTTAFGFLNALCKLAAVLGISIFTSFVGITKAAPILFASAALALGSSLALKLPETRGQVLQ

For `CCC[C@@H]1CC(=O)N([C@@H](CC)C(N)=O)C1` [Brivaracetam], the half life [1] is given as 7.6 ± 1.7 h, the water solubility is given as 700 mg/mL (≈ 3300 mM) and the “affinity for synaptic vesicle protein 2A (SV2A)” value [2] is given as “showed affinity”. The “inhibitory activity at neuronal voltage-dependent sodium channels” value [3] was “has inhibitory activity”.
